In brackets after ≈: the same amount, converted by molar mass. Where two headings read alike, the source gives them in different places.
Tests used:
[1] = system: Staphylococcus aureus 3055; experiment: Subcutaneous therapy of experimental bacterial infection in mice (ED50); assay type: in vivo; conditions: Staphylococcus aureus, 3055, sc
Protocol: Table II illustrates the effective dose (ED50, the effective dose to protect 50 percent of the test animals) for representative compounds of this invention against an experimental bacterial infection in mice.
The ED50 values were determined as described by W. E. Wick et al., Journal of Bacteriology, 81 [No. 2], 233-235 (1961).

Escherichia coli TEM = experiment: MIC, standard agar dilution test; assay type: cell-based; conditions: read-out: Minimum Inhibitory Concentration
From the text: (§1) The antibacterial activity of the deprotected compounds of this invention is illustrated by the following in vitro and in vivo test data obtained with representative compounds. In Table I, the minimum inhibitory concentration (MIC) for representative compounds against a wide range of gram-positive and gram-negative bacteria is presented. The MIC values were obtained by the standard agar dilution test.

Escherichia coli N10 = experiment: MIC, standard agar dilution test; assay type: cell-based; conditions: Escherichia coli
From the text: as §1

Serratia marcescens SE3 = experiment: MIC, standard agar dilution test; assay type: cell-based; conditions: Serratia marcescens, SE3, read-out: Minimum Inhibitory Concentration
From the text: as §1

[2] = system: Klebsiella pneumoniae X26; experiment: MIC, standard agar dilution test; assay type: cell-based
From the text: as §1

[3] = system: Enterobacter aerogenes C32; experiment: MIC, standard agar dilution test; assay type: cell-based; conditions: Klebsiella aerogenes
From the text: as §1

Proteus morganii PR15 = experiment: MIC, standard agar dilution test; assay type: cell-based; conditions: Morganella morganii, PR15, read-out: Minimum Inhibitory Concentration
From the text: as §1

[4] = system: Salmonella heidelberg X514; experiment: MIC, standard agar dilution test; assay type: cell-based; conditions: Salmonella enterica, X514, read-out: Minimum Inhibitory Concentration
From the text: as §1

Serratia marcescens X99 = experiment: MIC, standard agar dilution test; assay type: cell-based
From the text: as §1

[5] = system: Staphylococcus aureus X400; experiment: MIC, standard agar dilution test; assay type: cell-based; conditions: Staphylococcus aureus, X400, read-out: Minimum Inhibitory Concentration, Staphylococcus aureus X400
From the text: as §1

[6] = system: Staphylococcus aureus S13E; experiment: MIC, standard agar dilution test; assay type: cell-based; conditions: read-out: Minimum Inhibitory Concentration
From the text: as §1

[7] = system: Streptococcus group D X66; experiment: MIC, standard agar dilution test; assay type: cell-based; conditions: DX66, read-out: Minimum Inhibitory Concentration
From the text: as §1

Proteus rettgeri PR7 = experiment: MIC, standard agar dilution test; assay type: cell-based; conditions: Providencia rettgeri, PR7, read-out: Minimum Inhibitory Concentration, Proteus rettgeri PR7
From the text: as §1

Hemophilus influenzae 76 = experiment: MIC, standard agar dilution test; assay type: cell-based
From the text: as §1

[8] = system: Pseudomonas aeruginosa Ps18; experiment: MIC, standard agar dilution test; assay type: cell-based; conditions: Pseudomonas aeruginosa, PS18, read-out: Minimum Inhibitory Concentration
From the text: as §1

[9] = system: Bordetella bronchiseptica 16; experiment: MIC, standard agar dilution test; assay type: cell-based; conditions: Bordetella bronchiseptica, 16, read-out: Minimum Inhibitory Concentration
From the text: as §1

[10] = system: Enterobacter cloacae 265A; experiment: MIC, standard agar dilution test; assay type: cell-based; conditions: Enterobacter cloacae, 265A, read-out: Minimum Inhibitory Concentration
From the text: as §1

[11] = system: Streptococcus pneumoniae Park I; experiment: MIC, standard agar dilution test; assay type: cell-based
From the text: as §1

[12] = system: Citrobacter freundii CF17; experiment: MIC, standard agar dilution test; assay type: cell-based; conditions: Citrobacter freundii, CF17, read-out: Minimum Inhibitory Concentration
From the text: as §1

[13] = system: Pseudomonas aeruginosa X528; experiment: MIC, standard agar dilution test; assay type: cell-based; conditions: Pseudomonas aeruginosa, X528, read-out: Minimum Inhibitory Concentration
From the text: as §1

Enterobacter cloacae EB5 = experiment: MIC, standard agar dilution test; assay type: cell-based; conditions: Enterobacter cloacae, EB5, read-out: Minimum Inhibitory Concentration
From the text: as §1

[14] = system: Staphylococcus aureus V41; experiment: MIC, standard agar dilution test; assay type: cell-based; conditions: Staphylococcus aureus, V41, read-out: Minimum Inhibitory Concentration
From the text: as §1

Proteus inconstans PR33 = experiment: MIC, standard agar dilution test; assay type: cell-based; conditions: Providencia alcalifaciens, PR33, read-out: Minimum Inhibitory Concentration
From the text: as §1

Proteus rettgeri C24 = experiment: MIC, standard agar dilution test; assay type: cell-based; conditions: Providencia rettgeri
From the text: as §1

[15] = system: Staphylococcus epidermidis EPI2; experiment: MIC, standard agar dilution test; assay type: cell-based
From the text: as §1

[16] = system: Streptococcus pyogenes C203; experiment: MIC, standard agar dilution test; assay type: cell-based; conditions: Streptococcus pyogenes, C203, read-out: Minimum Inhibitory Concentration
From the text: as §1

[17] = system: Hemophilus influenzae C.L.; experiment: MIC, standard agar dilution test; assay type: cell-based; conditions: Haemophilus influenzae
From the text: as §1

[18] = system: Enterobacter aerogenes X68; experiment: MIC, standard agar dilution test; assay type: cell-based; conditions: Klebsiella aerogenes
From the text: as §1

Shigella sonnei N9 = experiment: MIC, standard agar dilution test; assay type: cell-based; conditions: read-out: Minimum Inhibitory Concentration
From the text: as §1

[19] = system: Klebsiella pneumoniae KAE; experiment: MIC, standard agar dilution test; assay type: cell-based; conditions: Klebsiella pneumoniae, read-out: Minimum Inhibitory Concentration
From the text: as §1

[20] = system: Enterobacter aerogenes EB17; experiment: MIC, standard agar dilution test; assay type: cell-based; conditions: Klebsiella aerogenes
From the text: as §1

[21] = system: Pseudomonas aeruginosa X239; experiment: MIC, standard agar dilution test; assay type: cell-based; conditions: Pseudomonas aeruginosa, X239, read-out: Minimum Inhibitory Concentration
From the text: as §1

Escherichia coli EC14 = experiment: MIC, standard agar dilution test; assay type: cell-based
From the text: as §1

[22] = system: Staphylococcus aureus X1.1; experiment: MIC, standard agar dilution test; assay type: cell-based
From the text: as §1

[23] = system: Staphylococcus epidermidis EPI1; experiment: MIC, standard agar dilution test; assay type: cell-based; conditions: Staphylococcus epidermidis, EPI1; read-out: Minimum Inhibitory Concentration
From the text: as §1

[24] = system: Streptococcus group D 9960; experiment: MIC, standard agar dilution test; assay type: cell-based; conditions: D9960, read-out: Minimum Inhibitory Concentration
From the text: as §1

[25] = system: Salmonella typhimurium 1335; experiment: MIC, standard agar dilution test; assay type: cell-based; conditions: Salmonella enterica, TYPHIMURIUM, read-out: Minimum Inhibitory Concentration
From the text: as §1

Escherichia coli X563 = experiment: Standard disc-plate method, zone of inhibition against apramycin-resistant strain; assay type: cell-based; conditions: apramycin-resistant E. coli X563, one value for each of two test runs per compound; for zone of inhibition at 15 µg/disc: Escherichia coli, X563, read-out: Zone of Inhibition (diameter in mm), 15 mcg/disc
From the text: Table III, shown below, illustrates the in vitro activity of 1-N-(S-y-amino-a-hydroxybutyryl)apramycin, 1-N-(RS-y-amino-a-hydroxybutyryl)apramycin, and 1-N-(S-y-amino-a-hydroxybutyryl)nebramine against an apramycin resistant strain of E. coli. The results below were obtained using the standard disc-plate method. The numerical values are the diameters in millimeters of the zones of inhibition observed against this bacterium. Compounds substituted with the y-amino-a-hydroxybutyryl and analogous side chains are useful in treating infections caused by apramycin resistant bacteria such as the one above.
The test organism (E. coli X563) used in the experiments summarized in Table III is resistant to apramycin due to a 3-N-acetyltransferase which enzymatically inactivates apramycin.

CNC1C(OC2OC(CO)C(N)C(O)C2O)OC2CC(N)C(OC3C(N)CC(NC(=O)C(O)CCN)C(O)C3O)OC2C1O (stereo not drawn) [Test Compound 1, 1-N-(S-γ-amino-α-hydroxybutyryl)apramycin]
ED50 ([1]; read-out: Effective Dose (ED50), mg/kg × 2 subcutaneous doses at 1 and 5 hours post infection, mice challenged with 68.1 LD50's): < 4.35 mg/kg
MIC (Escherichia coli TEM): 4 µg/mL (≈ 6.24 µM)
MIC (Escherichia coli N10; N10, Escherichia coli N10, agar dilution, read-out: Minimum Inhibitory Concentration): 8 µg/mL (≈ 12.5 µM)
MIC (Serratia marcescens SE3): 16 µg/mL (≈ 25 µM)
MIC ([2]; Klebsiella pneumoniae, X26, read-out: Minimum Inhibitory Concentration): 8 µg/mL (≈ 12.5 µM)
MIC ([3]; C32, read-out: Minimum Inhibitory Concentration): 8 µg/mL (≈ 12.5 µM)
MIC (Proteus morganii PR15): 128 µg/mL (≈ 200 µM)
MIC [4]: 16 µg/mL (≈ 25 µM)
MIC (Serratia marcescens X99; Serratia marcescens, X99, read-out: Minimum Inhibitory Concentration, Serratia marcescens X99): 8 µg/mL (≈ 12.5 µM)
MIC [5]: 32 µg/mL (≈ 49.9 µM)
MIC [6]: 16 µg/mL (≈ 25 µM)
MIC [7]: > 128 µg/mL
MIC (Proteus rettgeri PR7): 8 µg/mL (≈ 12.5 µM)
MIC (Hemophilus influenzae 76; Haemophilus influenzae, 76, read-out: Minimum Inhibitory Concentration, Hemophilus influenzae 76): 16 µg/mL (≈ 25 µM)
MIC [8]: 128 µg/mL (≈ 200 µM)
MIC [9]: 64 µg/mL (≈ 99.9 µM)
MIC [10]: 32 µg/mL (≈ 49.9 µM)
MIC ([11]; Streptococcus pneumoniae; read-out: Minimum Inhibitory Concentration): 64 µg/mL (≈ 99.9 µM)
MIC [12]: 16 µg/mL (≈ 25 µM)
MIC [13]: 64 µg/mL (≈ 99.9 µM)
MIC (Enterobacter cloacae EB5): 16 µg/mL (≈ 25 µM)
MIC [14]: 16 µg/mL (≈ 25 µM)
MIC (Proteus inconstans PR33): 8 µg/mL (≈ 12.5 µM)
MIC (Proteus rettgeri C24; C24, read-out: Minimum Inhibitory Concentration): 8 µg/mL (≈ 12.5 µM)
MIC ([15]; Staphylococcus epidermidis, EPI2, read-out: Minimum Inhibitory Concentration): 4 µg/mL (≈ 6.24 µM)
MIC [16]: 64 µg/mL (≈ 99.9 µM)
MIC ([17]; read-out: Minimum Inhibitory Concentration, Hemophilus influenzae C.L.): 16 µg/mL (≈ 25 µM)
MIC ([18]; X68, read-out: Minimum Inhibitory Concentration, Enterobacter aerogenes X68): 8 µg/mL (≈ 12.5 µM)
MIC (Shigella sonnei N9): 16 µg/mL (≈ 25 µM)
MIC [19]: 16 µg/mL (≈ 25 µM)
MIC ([20]; EB17, read-out: Minimum Inhibitory Concentration): 16 µg/mL (≈ 25 µM)
MIC [21]: 64 µg/mL (≈ 99.9 µM)
MIC (Escherichia coli EC14; Escherichia coli EC14, agar dilution, read-out: Minimum Inhibitory Concentration): 16 µg/mL (≈ 25 µM)
MIC ([22]; Staphylococcus aureus, X1.1, read-out: Minimum Inhibitory Concentration): 8 µg/mL (≈ 12.5 µM)
MIC [23]: 8 µg/mL (≈ 12.5 µM)
MIC [24]: > 128 µg/mL
MIC [25]: 16 µg/mL (≈ 25 µM)
Zone of Inhibition (diameter in mm) (Escherichia coli X563; 15 mcg/disc, listed as 1): 14.7 mm
zone of inhibition at 15 µg/disc (Escherichia coli X563): 12.4 mm

CNC1C(OC2OC(CO)C(N)C(O)C2O)OC2CC(N)C(OC3C(N)CC(NC(=O)CN)C(O)C3O)OC2C1O (centres unmarked) [Test Compound 3, 1-N-glycylapramycin]
ED50 ([1]; mg/kg × 2 subcutaneous doses at 1 and 5 hours post infection, mice challenged with 1,794 LD50's, read-out: Effective Dose (ED50)): 59.5 mg/kg
MIC (Escherichia coli TEM): 32 µg/mL (≈ 53.6 µM)
MIC (Escherichia coli N10; N10, read-out: Minimum Inhibitory Concentration): > 128 µg/mL
MIC (Serratia marcescens SE3): 128 µg/mL (≈ 215 µM)
MIC ([2]; Klebsiella pneumoniae X26, agar dilution, read-out: Minimum Inhibitory Concentration): 64 µg/mL (≈ 107 µM)
MIC ([3]; Enterobacter aerogenes C32, agar dilution, read-out: Minimum Inhibitory Concentration): 64 µg/mL (≈ 107 µM)
MIC (Proteus morganii PR15): > 128 µg/mL
MIC [4]: 128 µg/mL (≈ 215 µM)
MIC (Serratia marcescens X99; Serratia marcescens X99, read-out: Minimum Inhibitory Concentration): 64 µg/mL (≈ 107 µM)
MIC [5]: > 128 µg/mL
MIC [6]: 64 µg/mL (≈ 107 µM)
MIC [7]: > 128 µg/mL
MIC (Proteus rettgeri PR7): > 128 µg/mL
MIC (Hemophilus influenzae 76; Haemophilus influenzae, Hemophilus influenzae 76, read-out: Minimum Inhibitory Concentration): 64 µg/mL (≈ 107 µM)
MIC [8]: > 128 µg/mL
MIC [9]: > 128 µg/mL
MIC [10]: 128 µg/mL (≈ 215 µM)
MIC ([11]; Streptococcus pneumoniae, read-out: Minimum Inhibitory Concentration): > 128 µg/mL
MIC [12]: > 128 µg/mL
MIC [13]: > 128 µg/mL
MIC (Enterobacter cloacae EB5): 128 µg/mL (≈ 215 µM)
MIC [14]: 128 µg/mL (≈ 215 µM)
MIC (Proteus inconstans PR33): 128 µg/mL (≈ 215 µM)
MIC (Proteus rettgeri C24; Proteus rettgeri C24, agar dilution, read-out: Minimum Inhibitory Concentration): 64 µg/mL (≈ 107 µM)
MIC ([15]; Staphylococcus epidermidis EPI2, agar dilution, read-out: Minimum Inhibitory Concentration): 64 µg/mL (≈ 107 µM)
MIC [16]: > 128 µg/mL
MIC ([17]; Hemophilus influenzae C.L., read-out: Minimum Inhibitory Concentration): 64 µg/mL (≈ 107 µM)
MIC ([18]; Enterobacter aerogenes X68, read-out: Minimum Inhibitory Concentration): 64 µg/mL (≈ 107 µM)
MIC (Shigella sonnei N9): 128 µg/mL (≈ 215 µM)
MIC [19]: > 128 µg/mL
MIC ([20]; Enterobacter aerogenes EB17, agar dilution, read-out: Minimum Inhibitory Concentration): 64 µg/mL (≈ 107 µM)
MIC [21]: > 128 µg/mL
MIC (Escherichia coli EC14; Escherichia coli, EC14, read-out: Minimum Inhibitory Concentration): 128 µg/mL (≈ 215 µM)
MIC ([22]; Staphylococcus aureus X1.1, agar dilution, read-out: Minimum Inhibitory Concentration): 64 µg/mL (≈ 107 µM)
MIC [23]: 64 µg/mL (≈ 107 µM)
MIC [24]: > 128 µg/mL
MIC [25]: 128 µg/mL (≈ 215 µM)
zone of inhibition at 15 µg/disc (Escherichia coli X563): < 8 mm
